Series [1] deals with T1, Aedes aegypti OR8 (AaOR8) (Aedes aegypti, UniProt Q16MN0).
T1 sequence (Q16MN0 1-422): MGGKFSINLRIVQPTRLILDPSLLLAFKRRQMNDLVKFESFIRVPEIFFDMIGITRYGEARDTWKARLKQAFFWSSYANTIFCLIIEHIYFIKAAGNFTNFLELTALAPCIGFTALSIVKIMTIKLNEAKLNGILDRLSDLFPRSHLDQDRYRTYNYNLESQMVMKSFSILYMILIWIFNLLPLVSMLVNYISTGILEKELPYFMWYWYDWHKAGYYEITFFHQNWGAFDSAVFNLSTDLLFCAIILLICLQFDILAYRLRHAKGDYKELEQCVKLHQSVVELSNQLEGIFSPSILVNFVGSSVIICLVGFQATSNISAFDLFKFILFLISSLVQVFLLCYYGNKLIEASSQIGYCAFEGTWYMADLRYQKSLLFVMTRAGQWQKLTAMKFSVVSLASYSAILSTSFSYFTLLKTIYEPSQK
T1 sequence (Q178U6 1-478 partner): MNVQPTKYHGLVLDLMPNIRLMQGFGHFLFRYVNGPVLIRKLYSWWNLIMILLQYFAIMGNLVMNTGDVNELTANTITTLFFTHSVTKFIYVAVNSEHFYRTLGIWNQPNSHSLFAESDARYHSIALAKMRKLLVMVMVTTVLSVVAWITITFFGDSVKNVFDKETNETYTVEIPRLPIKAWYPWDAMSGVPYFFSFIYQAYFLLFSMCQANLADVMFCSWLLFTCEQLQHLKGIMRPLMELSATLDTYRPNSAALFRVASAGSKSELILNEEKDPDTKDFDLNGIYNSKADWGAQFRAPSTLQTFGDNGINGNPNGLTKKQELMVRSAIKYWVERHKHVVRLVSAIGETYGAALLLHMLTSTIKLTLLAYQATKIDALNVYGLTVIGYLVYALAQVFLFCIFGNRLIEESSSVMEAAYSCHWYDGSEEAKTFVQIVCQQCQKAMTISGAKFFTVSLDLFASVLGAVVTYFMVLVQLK
The series is described as follows: Activation of mosquito odorant receptor OR8 from Aedes aegypti (AaOR8), FIG. 17A. The class given is cell-based. Particulars: molar concentration, read-out: A. agypti OR8 EC50. The source says:
(§1) FIG. 17B-OR8 is an enantioselective octenol receptor, distinguishing between the (R)-enantiomer, which is the most abundant form in nature, and the(S)-enantiomer.
(§2) Orco expression, electrophysiology and purification. Supply of Orco-rich membranes will be predicated on the functional validation carried out using the two-electrode voltage clamp of Xenopus oocytes expressing this receptor. Expression and recordation of the pharmacological activity of mosquito odorant receptor complexes (ORx-Orco) in Xenopus oocytes has been studies extensively. This technique to study the agonist activity of Orco agonists (e.g., VUAA1) and antagonists (e.g., octadienal and carvacrol) (as shown in FIG. 4A) or associated with ORx has been achieved. In some cases Orco rather than ORx was used in order to reduce potential pitfalls associated with OR complexes. In some cases, ORx alone is not functional without its co-receptor chaperone. Two types of expression vectors adapted to Xenopus oocyte expression are used. pSP64DV was used to record currents reaching over 1 μA from Orco exposed to VUAA1, indicating high protein levels (FIG. 4B). […] This plasmid functions well in Xenopus oocytes and adds a constitutively fluorescent mKate2 tag on the C-terminus of the protein of interest (here Orco) that can be directly or indirectly (fluorescence immunohistochemistry) detected by confocal scanning laser microscopy. […]

Series [2] deals with Toxorhynchites amboinensis OR8 (TaOR8). Put plainly: Activation of mosquito odorant receptor OR8 from Toxorhynchites amboinensis (TaOR8), FIG. 17A. The class given is cell-based. Particulars: molar concentration, read-out: T. amboinensis OR8 (TaOR8) EC50.
Excerpt: as §1, §2

The subject of series [3] is OR8 from Aedes aegypti (AaOR8). The series is described as follows: mosquito odorant receptor 8 activation by odorants (AaOR8). The format is cell-based. Particulars: FIG. 17A.
Excerpt: as §1
(§3) Indeed, any modifications of the double bond saturation, side chain length, chiral center position, or functional substitution of the (R)-1-octen-3-ol chemical structure is sufficient to prevent OR8 from being activated (FIG. 17B).

Series [4] deals with OR8 from Toxorhynchites amboinensis (TaOR8). Put plainly: mosquito odorant receptor 8 activation by odorants (TaOR8). The class given is cell-based. Particulars: FIG. 17A.
Excerpt: as §1, §3

Series [5] concerns mosquito odorant receptors known as OR8. Put plainly: mosquito odorant receptor OR8 activation and odorant tuning. Particulars: FIG. 17A. The class given is cell-based.
Excerpt: as §3
These studies established OR8 as a sensitive enantioselective odorant receptor, whose narrow odorant tuning is optimal in the nanomolar range, which is excellent in the field of receptor pharmacology. […] OR8 is the epitome of receptor selectivity, being able to reject any slight modification on the (R)-1-octen-3-ol backbone manifesting in complete activation shutdown (FIG. 17B). At a low concentration the receptor is specific to (R)-1-octen-3-ol (FIG. 17C), which is a desirable property for the purpose of using this receptor to detect early signs of microbial contamination or presence.

For another series, the target named is T2, Aedes aegypti Orco (Aedes aegypti, UniProt Q178U6).
T2 construct: expressed in transfected cells; host or cells: Xenopus oocytes injected with capped Orco RNA from linearized pSP64DV
T2 sequence (Q178U6 1-478): T1 sequence (Q178U6 1-478 partner)
Put plainly: two-electrode voltage clamp of Xenopus oocytes expressing Orco. The class given is cell-based. Particulars: for effect on VUAA1-activated Orco: oocytes expressing Aedes aegypti Orco, 2.10-4 M VUAA1 with equimolar concentration of antagonist. From the text:
FIG. 4A-Chemical structures of tested compounds. FIG. 4B-Representative current traces of oocytes expressing Aedes aegypti Orco following exposure to 2.10-4 M VUAA1 alone or in combination with equimolar concentrations of the antagonists octadienal and carvacrol. FIG. 4C-Normalized responses of AaegOrco to VUAA1 alone or in combination with octadienal or carvacrol. Odorants effects were statistically significant (one-way ANOVA followed by Tukey's post-test; P<0.0001; mean responses+s.e.m.; VUAA1 alone, n=7; octadienal & carvacrol n=6).
Orco expression, electrophysiology and purification. Supply of Orco-rich membranes will be predicated on the functional validation carried out using the two-electrode voltage clamp of Xenopus oocytes expressing this receptor. Expression and recordation of the pharmacological activity of mosquito odorant receptor complexes (ORx-Orco) in Xenopus oocytes has been studies extensively. This technique to study the agonist activity of Orco agonists (e.g., VUAA1) and antagonists (e.g., octadienal and carvacrol) (as shown in FIG. 4A) or associated with ORx has been achieved. In some cases Orco rather than ORx was used in order to reduce potential pitfalls associated with OR complexes. In some cases, ORx alone is not functional without its co-receptor chaperone. Two types of expression vectors adapted to Xenopus oocyte expression are used. pSP64DV was used to record currents reaching over 1 μA from Orco exposed to VUAA1, indicating high protein levels (FIG. 4B). Considering the objective to extract Orco-rich membrane fragments less than <50 nm in length, receptor density should be sufficient to ensure that these short fragments contain Orco. To evaluate Orco density, this gene was expressed using the pCMV6-AC-mKate expression vectors (Origene), or other tagged version. This plasmid functions well in Xenopus oocytes and adds a constitutively fluorescent mKate2 tag on the C-terminus of the protein of interest (here Orco) that can be directly or indirectly (fluorescence immunohistochemistry) detected by confocal scanning laser microscopy. […]
On the technique in general: In two-electrode clamp one electrode senses voltage and the other passes current.

The conditions of series [6]: cited from earlier work.
In a further series the target is OR2 (Anopheles gambiae, UniProt Q8WTE6). Particulars: background, based on cell-based assays; cited from earlier work.
OR2, sequence (Q8WTE6 whole entry, species assumed): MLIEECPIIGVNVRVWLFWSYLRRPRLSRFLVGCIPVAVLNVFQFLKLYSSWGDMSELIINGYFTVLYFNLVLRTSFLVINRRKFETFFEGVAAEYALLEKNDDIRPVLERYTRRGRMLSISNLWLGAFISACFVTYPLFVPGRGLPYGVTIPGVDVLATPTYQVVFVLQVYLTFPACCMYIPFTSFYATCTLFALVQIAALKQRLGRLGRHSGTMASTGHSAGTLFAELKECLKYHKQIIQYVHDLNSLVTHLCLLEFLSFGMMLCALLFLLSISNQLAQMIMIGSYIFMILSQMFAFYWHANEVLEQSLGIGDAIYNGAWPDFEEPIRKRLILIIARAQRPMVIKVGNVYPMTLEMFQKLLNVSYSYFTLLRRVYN
OR2, sequence (Q7QCC7 whole entry partner, species assumed): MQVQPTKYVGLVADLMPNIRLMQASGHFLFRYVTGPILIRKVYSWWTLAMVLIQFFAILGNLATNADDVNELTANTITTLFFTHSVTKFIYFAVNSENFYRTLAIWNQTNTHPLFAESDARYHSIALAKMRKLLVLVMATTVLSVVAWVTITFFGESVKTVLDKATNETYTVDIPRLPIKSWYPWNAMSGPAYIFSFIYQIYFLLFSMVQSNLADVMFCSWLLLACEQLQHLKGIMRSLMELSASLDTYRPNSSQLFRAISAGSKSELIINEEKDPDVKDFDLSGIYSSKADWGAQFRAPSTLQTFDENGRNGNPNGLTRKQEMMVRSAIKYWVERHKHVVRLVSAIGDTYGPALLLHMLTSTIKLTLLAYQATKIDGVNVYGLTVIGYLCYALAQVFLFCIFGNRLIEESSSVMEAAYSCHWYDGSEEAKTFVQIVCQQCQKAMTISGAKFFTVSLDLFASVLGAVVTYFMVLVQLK
The test system of a further series is OR9/OR10. Particulars: background, based on cell-based assays; cited from earlier work.

This is an account of results in patent US12571764B2, “Receptor-based biosensors” (STATE OF ISRAEL, MINISTRY OF AGRICULTURE & RURAL …, priority 2020, dated 2026).

Broadly, the EC50 is the concentration that produces a half-maximal response. In the case of `C=C[C@H](O)CCCCC` [(R)-1-Octen-3-ol, (R)-1-octen-3-ol], the concentration giving a half-maximal response (EC50) in series [1] came to 213 nM; in series [2], 401 nM.
Take `C=C[C@H](O)CCCCC` [(R)-1-octen-3-ol]: the “sensitivity of AaOR8 (activating concentration range)” value in series [3] was “parts per billion range”. Further, in series [4], the “sensitivity of TaOR8 (activating concentration range)” value was “parts per billion range”. For the same compound, in [5], the “concentration range at which OR8 is activated” value is “parts per billion range”.
For `CCc1ccc(NC(=O)CSc2nnc(-c3cccnc3)n2CC)cc1` [VUAA1], the “currents recorded from Orco exposed to VUAA1” value on Aedes aegypti Orco (Xenopus oocytes, pSP64DV expression vector) is “over 1 μA”.
Regarding `Cc1ccc(C(C)C)cc1O` [carvacrol], at Aedes aegypti Orco, the “effect on VUAA1-activated Orco” value is given as “inhibit VUAA1-activated Orco”.
Regarding `c1ccc2[nH]ccc2c1` [indole], the solubility in water entry in series [6] is listed as “sparingly soluble”. For the same compound, the “concentration range of selective response of OR2” value at OR2 was “upper picomolar range”.
As to `Cc1c[nH]c2ccccc12` [skatole], in the series with OR9/OR10, the “concentration range of selective response of OR9/OR10” value was “upper picomolar range”. Further, in [6], the solubility in water result is “sparingly soluble”.
As for octadienal, the “effect on VUAA1-activated Orco” value at Aedes aegypti Orco is on record as “inhibit VUAA1-activated Orco”.
